Reference: US6337327B1, “Pharmaceutical compositions comprising an aldose reductase inhibitor and an ace inhibitor” (Zeneca Limited, priority 1997, dated 2002)

System: rats rendered diabetic by streptozotocin (sciatic nerve branch to tibialis anterior muscle)
Assay: Motor nerve conduction velocity in streptozotocin-diabetic rats
Type: in vivo, Male Sprague-Dawley rats
Settings: lisinopril 0.3 mg/kg/day; for Nerve conduction velocity (mean±SEM): diabetic rats, 6 weeks untreated diabetes then 2 weeks treatment in the drinking water, ZD5522 0.25 mg/kg/day, or both, nondiabetic control 64.4±0.5, untreated diabetic 50.9±0.5; for increase in conduction velocity: single-agent treatment for 2 weeks vs untreated diabetic rats, ZD5522 0.25 mg/kg/day
Protocol: Male Sprague-Dawley rats, 19 weeks old at the start of the study, were divided into non-diabetic animals (normal control group) and animals rendered diabetic by intraperitoneal administration of streptozotocin, (40-45 mg/kg, freshly dissolved in sterile saline). Diabetes was verified 24 hours later by estimating hyperglycemia and glucosuria (Visidex II and Diastix; Ames, Slough, UK). Diabetic rats were tested weekly and weighed daily. […] Samples were taken from the tail vein or carotid artery after final experiments for plasma glucose determination (GOD-Perid method; Boehringer Mannheim, Mannheim, Germany). After 6 weeks of untreated diabetes, groups of rats were treated for a further 2 weeks with lisinopril (0.3 mg/kg/day) or the aldose reductase inhibitor, ZD5522 (0.25 mg/kg/day) or a combination of the two drugs, dissolved in the drinking water.
At the end of the treatment period, rats were anesthetized with thiobutabarbitone by intraperitoneal injection (50-100 mg/kg). The trachea was cannulated for artificial ventilation and a cartoid cannula was used to monitor mean systemic blood pressure. Motor nerve conduction velocity was measured (as previously described by Cameron et al, Diabetologia, 1993, Vol. 36, pages 299-304) between sciatic notch and knee in the nerve branch to tibialis anterior muscle, which is representative of the whole sciatic nerve in terms of susceptibility to diabetes and treatment effects.

Row | Structure (SMILES) | Nerve conduction velocity (mean±SEM) [m/s] | increase in conduction velocity [%]
1 | Cc1ccccc1CC(=O)Nc1cc(C)c(S(=O)(=O)C[N+](=O)[O-])c(C)c1 [ZD5522, 3′,5′-dimethyl-4′-nitromethylsulfonyl-2-(2-tolyl)acetanilide] | 53.7±0.3 | ~20
2 | NCCCC[C@H](N[C@@H](CCc1ccccc1)C(=O)O)C(=O)N1CCC[C@H]1C(=O)O [lisinopril] | 53.9±0.6 | ~20
